Source: ChEMBL document CHEMBL1201862, “PubChem BioAssay data set” (2004)
Calls of active or inactive are those of the source.

Tests used:
[1] = target: T1, Ubiquitin-conjugating enzyme E2 N (Homo sapiens, UniProt P61088); format: functional;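 further: Dose-response confirmation in a TR-FRET assay detecting UBC13-driven polyubiquitin chain formation, inhibition measured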
T1 sequence (P61088 whole entry): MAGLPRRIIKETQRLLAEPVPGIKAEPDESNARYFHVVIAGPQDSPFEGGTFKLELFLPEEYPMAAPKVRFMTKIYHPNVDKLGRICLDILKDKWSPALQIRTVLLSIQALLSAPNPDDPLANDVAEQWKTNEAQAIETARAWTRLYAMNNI

[2] = target: E3 ubiquitin-protein ligase Mdm2/Protein Mdm4 (Homo sapiens, UniProt O15151+Q00987); assay: disruption of Mdm2/MdmX protein binding – luminescence detection, dose response (AID 504593); format: functional
Chain of E3 ubiquitin-protein ligase Mdm2/Protein Mdm4 (Q00987 whole entry): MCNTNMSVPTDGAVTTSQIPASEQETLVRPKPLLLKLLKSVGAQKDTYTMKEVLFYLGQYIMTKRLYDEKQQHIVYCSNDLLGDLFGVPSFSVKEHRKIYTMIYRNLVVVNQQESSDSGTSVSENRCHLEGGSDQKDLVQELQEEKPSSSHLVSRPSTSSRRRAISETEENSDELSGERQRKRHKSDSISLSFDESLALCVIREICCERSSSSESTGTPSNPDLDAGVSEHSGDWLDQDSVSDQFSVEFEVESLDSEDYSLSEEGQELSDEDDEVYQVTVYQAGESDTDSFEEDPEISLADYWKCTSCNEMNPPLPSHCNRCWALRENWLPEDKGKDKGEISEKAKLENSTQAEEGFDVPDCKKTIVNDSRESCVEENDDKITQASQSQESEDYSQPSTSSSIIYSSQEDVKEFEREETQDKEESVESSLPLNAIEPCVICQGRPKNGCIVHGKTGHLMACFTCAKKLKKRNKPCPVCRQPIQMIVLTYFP
Chain of E3 ubiquitin-protein ligase Mdm2/Protein Mdm4 (O15151 whole entry): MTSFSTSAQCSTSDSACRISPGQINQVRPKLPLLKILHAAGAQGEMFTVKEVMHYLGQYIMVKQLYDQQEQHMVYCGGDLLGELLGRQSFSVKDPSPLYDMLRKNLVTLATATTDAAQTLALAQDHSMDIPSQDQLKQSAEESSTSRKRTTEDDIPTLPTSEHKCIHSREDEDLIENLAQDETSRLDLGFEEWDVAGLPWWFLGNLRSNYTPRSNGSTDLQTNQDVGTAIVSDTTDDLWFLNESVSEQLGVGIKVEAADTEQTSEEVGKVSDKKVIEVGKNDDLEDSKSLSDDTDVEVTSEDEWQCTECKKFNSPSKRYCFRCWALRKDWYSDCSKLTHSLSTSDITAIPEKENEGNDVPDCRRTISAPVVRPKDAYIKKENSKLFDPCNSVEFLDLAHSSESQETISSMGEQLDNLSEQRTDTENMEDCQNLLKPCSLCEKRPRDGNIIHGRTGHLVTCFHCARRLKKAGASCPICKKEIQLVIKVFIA

[3] = NIH3T3 cell viability loss – ATP luminescence, mouse fibroblasts, counter-screen, dose response (AID 2010); format: functional, cell-based;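 further: cells exposed to compound for about 90 hours before reading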
[4] = Trypanosoma cruzi growth suppression in host cells – NIH3T3 host cells, beta-gal luminescence, confirmation (AID 2044); format: functional, cell-based;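 further: intracellular parasites grown in NIH/3T3 mouse fibroblasts as host cells; luminescent beta-galactosidase reporter signal from transgenic T. cruzi replicating inside host cells; inhibitors lower the luminescence signal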
[5] = cells; format: functional
[6] = HepG2 cell cytotoxicity, dose response, cytotoxicity control for non-replicating M. tuberculosis project (AID 489018); format: functional; conditions: Mycobacterium tuberculosis
[7] = THP-1 cell cytotoxicity, dose response, cytotoxicity control for non-replicating M. tuberculosis project (AID 489025); format: functional
[8] = target: Protein Wnt-3a (Mus musculus, UniProt P27467); assay: antagonism of Wnt3a pathway luciferase reporter – Wnt-LIGHT cells, luminescence, selectivity assay for Gli-SUFU antagonist project, dose response (AID 651570); format: functional; conditions: read-out: IC50_Mean;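 further: Wnt-LIGHT reporter cells stimulated with conditioned medium from Wnt3a-producing cells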
Chain of Protein Wnt-3a (P27467 whole entry): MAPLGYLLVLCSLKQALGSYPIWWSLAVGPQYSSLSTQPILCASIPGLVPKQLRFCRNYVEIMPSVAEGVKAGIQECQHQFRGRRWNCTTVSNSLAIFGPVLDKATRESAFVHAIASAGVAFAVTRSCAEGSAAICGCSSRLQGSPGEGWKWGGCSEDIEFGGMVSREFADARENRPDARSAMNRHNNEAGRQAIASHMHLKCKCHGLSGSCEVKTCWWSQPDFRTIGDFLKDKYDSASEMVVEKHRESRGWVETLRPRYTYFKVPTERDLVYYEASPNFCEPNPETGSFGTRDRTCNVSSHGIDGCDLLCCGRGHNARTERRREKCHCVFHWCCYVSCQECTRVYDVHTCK

[9] = tested on: Streptococcus sp. 'group A'; assay: Streptococcus pyogenes SK(-)GAS viability under kanamycin – luminescence, BacTiterGlo, confirmation, counter-screen for streptokinase expression inhibitor project, dose response (AID 1900); format: functional, organism-based
[10] = Vero E6 cell cytotoxicity, dose response, cytotoxicity control for non-replicating M. tuberculosis project, secondary assay (AID 492998); format: functional, VeroE6; conditions: Vero C1008
[11] = tested on: Streptococcus; assay: GAS UMAA2166 growth inhibition – luminescence, BacTiterGlo, counter-screen for streptokinase expression inhibitor project, dose response (AID 1915); format: functional, organism-based;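 further: potency for reduction of bacterial viability or growth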
[12] = target: T2, Microphthalmia-associated transcription factor (Homo sapiens, UniProt O75030); assay: reducers of TRPM1 reporter luminescence, concentration series – cell-based, SK-MEL-5, cherry-picked, set 3, MITF inhibitor project, dose response (AID 493073); format: functional;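 further: SK-MEL-5 melanoma cells with luciferase driven by the MITF target TRPM1 promoter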
T2 sequence (O75030 whole entry): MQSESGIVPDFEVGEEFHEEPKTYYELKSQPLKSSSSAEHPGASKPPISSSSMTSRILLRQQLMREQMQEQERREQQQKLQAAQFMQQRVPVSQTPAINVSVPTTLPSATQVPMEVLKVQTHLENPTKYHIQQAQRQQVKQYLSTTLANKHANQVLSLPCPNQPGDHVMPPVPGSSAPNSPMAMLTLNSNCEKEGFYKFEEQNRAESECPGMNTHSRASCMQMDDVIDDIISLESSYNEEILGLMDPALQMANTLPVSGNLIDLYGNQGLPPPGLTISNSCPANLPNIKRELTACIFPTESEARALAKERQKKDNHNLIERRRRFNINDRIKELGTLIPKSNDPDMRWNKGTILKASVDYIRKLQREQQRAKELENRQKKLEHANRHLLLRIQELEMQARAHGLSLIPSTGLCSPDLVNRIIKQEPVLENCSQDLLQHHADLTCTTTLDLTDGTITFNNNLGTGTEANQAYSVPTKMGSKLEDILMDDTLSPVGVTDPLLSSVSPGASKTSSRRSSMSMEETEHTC

[13] = target: G-protein coupled receptor 55 (Homo sapiens, UniProt Q9Y2T6); assay: inhibition of LPI-stimulated GPR55 beta-arrestin translocation – imaging, U2OS, beta-arrestin-GFP, LPI agonist, primary screen (AID 2013); format: functional;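 further: antagonist potency measured as reduced agonist-driven arrestin aggregation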
Chain of G-protein coupled receptor 55 (Q9Y2T6 whole entry): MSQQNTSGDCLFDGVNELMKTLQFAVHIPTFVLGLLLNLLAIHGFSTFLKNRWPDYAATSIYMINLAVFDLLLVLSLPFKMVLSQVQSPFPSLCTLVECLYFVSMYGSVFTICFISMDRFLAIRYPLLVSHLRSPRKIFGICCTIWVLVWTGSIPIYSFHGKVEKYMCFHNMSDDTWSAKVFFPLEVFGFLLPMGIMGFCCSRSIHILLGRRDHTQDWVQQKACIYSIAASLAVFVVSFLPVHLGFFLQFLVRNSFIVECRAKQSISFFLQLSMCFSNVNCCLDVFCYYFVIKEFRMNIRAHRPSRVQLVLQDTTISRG

[14] = NIH/3T3 cell viability loss – mouse embryonic fibroblasts, dry powder, set 2, cytotoxicity control, dose response (AID 493247); format: functional, cell-based; conditions: Fibroblast
[15] = tested on: Trypanosoma cruzi; assay: anti-trypanosomal activity in host cells – cell-based, plate reader, dry powder, set 3, dose response (AID 493197); format: functional
[16] = tested on: HEK293; assay: NOD2 signaling inhibitors in MDP-stimulated cells, cell-based, uHTS, luminescence (AID 2001); format: functional; conditions: Homo sapiens
[17] = tested on: HEK293; assay: cells; format: functional, cell-based; conditions: Homo sapiens
[18] = tested on: HEK293; assay: cells; format: functional, cell-based; conditions: Homo sapiens; remark: listed apart in the source
[19] = target: Nucleotide-binding oligomerization domain-containing protein 2 (Homo sapiens, UniProt Q9HC29); assay: inhibition of NOD2-driven NF-kB reporter – cell-based, luminescence, uHTS, HEK293 (AID 1566); format: functional
Chain of Nucleotide-binding oligomerization domain-containing protein 2 (Q9HC29 whole entry, the tested form may be a part): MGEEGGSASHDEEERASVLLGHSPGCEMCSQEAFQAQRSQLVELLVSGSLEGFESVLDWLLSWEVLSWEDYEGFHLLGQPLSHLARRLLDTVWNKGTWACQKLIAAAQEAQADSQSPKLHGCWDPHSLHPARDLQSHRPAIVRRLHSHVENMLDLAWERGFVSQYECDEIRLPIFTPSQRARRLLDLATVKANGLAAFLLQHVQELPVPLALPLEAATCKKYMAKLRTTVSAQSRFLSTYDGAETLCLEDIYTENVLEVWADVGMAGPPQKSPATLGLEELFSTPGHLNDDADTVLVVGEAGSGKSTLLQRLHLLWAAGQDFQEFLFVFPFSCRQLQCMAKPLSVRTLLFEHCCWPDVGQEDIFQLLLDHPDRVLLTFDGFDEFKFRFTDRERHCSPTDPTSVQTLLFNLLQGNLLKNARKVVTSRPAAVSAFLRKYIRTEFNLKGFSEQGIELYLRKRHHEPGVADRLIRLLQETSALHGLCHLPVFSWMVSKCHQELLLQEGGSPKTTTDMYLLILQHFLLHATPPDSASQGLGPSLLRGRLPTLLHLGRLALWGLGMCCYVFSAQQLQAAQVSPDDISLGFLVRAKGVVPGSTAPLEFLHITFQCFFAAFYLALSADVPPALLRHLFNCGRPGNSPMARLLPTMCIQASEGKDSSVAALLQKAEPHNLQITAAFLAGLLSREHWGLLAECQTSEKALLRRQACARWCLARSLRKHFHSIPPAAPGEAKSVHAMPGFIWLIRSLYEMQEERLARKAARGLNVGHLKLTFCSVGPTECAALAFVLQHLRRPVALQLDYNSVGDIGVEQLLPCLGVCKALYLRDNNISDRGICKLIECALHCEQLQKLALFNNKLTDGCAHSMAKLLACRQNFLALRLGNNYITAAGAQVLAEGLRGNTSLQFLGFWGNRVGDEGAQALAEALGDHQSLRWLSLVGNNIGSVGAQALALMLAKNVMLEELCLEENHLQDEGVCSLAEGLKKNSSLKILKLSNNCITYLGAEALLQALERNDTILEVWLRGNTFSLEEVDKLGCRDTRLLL

[20] = tested on: HEK293; assay: inhibition of NOD1-driven NF-kB reporter – cell-based, luminescence, uHTS, primary screen (AID 1578); format: functional; conditions: Homo sapiens
[21] = tested on: HEK293; assay: cells; format: functional, cell-based; conditions: Homo sapiens; remark: listed apart in the source
[22] = target: T3, Type-1 angiotensin II receptor (Homo sapiens, UniProt P30556); assay: agonist activity at AGTR1 – cell-based, uHTS hits, selectivity assay for APJ receptor agonist project, dose response (AID 488865); format: functional;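 further: beta-arrestin recruitment to AT1 measured by enzyme fragment complementation luminescence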
T3 sequence (P30556 whole entry): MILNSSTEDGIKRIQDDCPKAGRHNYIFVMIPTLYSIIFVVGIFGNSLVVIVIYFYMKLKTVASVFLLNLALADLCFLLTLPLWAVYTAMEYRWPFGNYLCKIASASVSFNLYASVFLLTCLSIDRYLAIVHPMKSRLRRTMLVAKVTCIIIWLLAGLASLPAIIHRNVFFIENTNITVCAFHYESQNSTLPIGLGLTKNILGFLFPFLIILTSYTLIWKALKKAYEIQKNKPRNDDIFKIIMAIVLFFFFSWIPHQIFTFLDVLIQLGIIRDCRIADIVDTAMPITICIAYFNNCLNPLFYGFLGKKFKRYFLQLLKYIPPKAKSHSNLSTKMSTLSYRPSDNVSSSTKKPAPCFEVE

Structure (SMILES): COc1ccc(-c2cc3c(=O)n(CC(=O)NCCCN4CCC(N5CCCCC5)CC4)nc(C)n3n2)cc1
- IC50 [1]: > 20 µM (inactive)
- IC50 [2]: 9.38 µM (active)
- EC50 [3]: > 60 µM (not active)
- EC50 [4]: 3.09 µM (active)

Structure (SMILES): CCCCCCn1c(=O)c(C(=O)Nc2cnccn2)c(O)c2ccccc21
- IC50 [5]: 5.03 µM (active)
- CC50 [6]: 10.2 µM (active)
- CC50 [7]: 3.51 µM (active)
- IC50 [8]: 3.55 µM (active)
- EC50 [9]: 3 µM (active)
- CC50 [10]: 7.38 µM (active)
- EC50 [11]: 13 µM (active)
- AC50 [12]: 3.68 µM (active)

Structure (SMILES): Cc1ccccc1CSCCNC(=O)c1ccc(N(C)S(=O)(=O)c2ccccc2)cc1
- IC50 [13]: 3 µM (active)

Structure (SMILES): COc1ccc(CN2CCCC(C(=O)N3CCc4ccccc4C3)C2)cc1OC (centres undefined)
- AC50 [14]: 41.7 µM (active)
- AC50 [15]: 3.54 µM (active)

Structure (SMILES): C=CCn1c(O)c(N=NC(=S)Nc2cccc(OC)c2)c2ccccc21
- IC50 [16]: 1.76 µM (active)
- IC50 [17]: 3.41 µM (active)
- IC50 [18]: > 20 µM (inactive)
- EC50 [3]: 4.49 µM (active)
- EC50 [19]: > 20 µM (inactive)
- EC50 [20]: > 20 µM (inactive)
- IC50 [21]: > 20 µM (inactive)
- EC50 [4]: 0.589 µM (active)

Structure (SMILES): COc1cc2c(cc1NC(=O)c1cc(-c3ccncc3)nc3ccc(C)cc13)oc1ccccc12
- EC50 [22]: > 100 µM (inactive)
